Among the test systems are MDA-MB-435; HT29 colon; MALME-3M melanoma; COLO 205 colon; SNB-19 CNS; TK-10 renal; NCI-H226 lung; K-562 leukemia; MCF7 breast; SK-OV-3 ovarian; HCT-15 colon; SNB-75 CNS; RXF 393 renal; OVCAR-4 ovarian; SK-MEL-2 melanoma; NCI-H460 lung.
Experiment in all cases: growth of human tumour cells (NCI), 48 h

Molecules are shown by their SMILES.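 Test compounds were applied to cells in 96-well plates for 48 hours at 5 doses. TGI denotes the concentration required for complete inhibition of growth.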

For `Nc1ccc(-c2nc3ccc(F)cc3s2)cc1Cl`, the TGI in the assay with MDA-MB-435, in the assay with HT29 colon, in the assay on MALME-3M melanoma, in the assay with COLO 205 colon, with SNB-19 CNS and with TK-10 renal was over 100 µM throughout. The TGI with NCI-H226 lung is over 100 µM; in the assay with K-562 leukemia, over 100 µM; with MCF7 breast, over 100 µM; in the assay on SK-OV-3 ovarian, over 100 µM; with HCT-15 colon it was over 100 µM; in the assay on SNB-75 CNS it was over 59.9 µM. Besides, the TGI in the assay with RXF 393 renal is over 73.8 µM; with OVCAR-4 ovarian it was over 100 µM; in the assay on SK-MEL-2 melanoma, over 100 µM.
`COc1ccc2c(O)c(S(=O)(=O)c3ccc(C)cc3)c(=O)oc2c1OC`: the TGI with MDA-MB-435, in the assay with HT29 colon, in the assay with MALME-3M melanoma, with COLO 205 colon, with SNB-19 CNS and in the assay on TK-10 renal was over 100 µM throughout. Further, the TGI in the assay with NCI-H226 lung, in the assay with K-562 leukemia, with MCF7 breast, with SK-OV-3 ovarian, with HCT-15 colon and with SNB-75 CNS was over 100 µM in each case. The TGI in the assay with RXF 393 renal, in the assay on NCI-H460 lung, in the assay with OVCAR-4 ovarian and in the assay on SK-MEL-2 melanoma was over 100 µM in each case.
On to `CCc1ccc2[nH]c(O)c(C3=Nc4ccccc4C3=O)c2c1`, for which the TGI was over 100 µM in the assay with MDA-MB-435; over 100 µM with HT29 colon; over 100 µM in the assay with MALME-3M melanoma; over 100 µM with COLO 205 colon; 31.2 µM with SNB-19 CNS; 37 µM in the assay on TK-10 renal. For the same molecule, the TGI with NCI-H226 lung is over 100 µM; in the assay on K-562 leukemia, over 100 µM; in the assay with MCF7 breast it was 10.9 µM; in the assay on SK-OV-3 ovarian, 41.5 µM; with HCT-15 colon, over 100 µM; with SNB-75 CNS, 91.4 µM. The TGI was 51.4 µM with RXF 393 renal, over 100 µM with NCI-H460 lung, 61.3 µM with OVCAR-4 ovarian and 43.7 µM in the assay on SK-MEL-2 melanoma.
In the case of `N=c1oc2ccccc2cc1-c1nc2ccccc2[nH]1`, the TGI was 48.2 µM with MDA-MB-435; over 100 µM in the assay with HT29 colon; 72 µM in the assay with MALME-3M melanoma; over 100 µM in the assay on COLO 205 colon; over 100 µM in the assay with SNB-19 CNS; 38.4 µM in the assay with TK-10 renal. For the same molecule, the TGI with NCI-H226 lung was over 100 µM; with K-562 leukemia, 82.6 µM; in the assay on MCF7 breast, over 100 µM; in the assay with SK-OV-3 ovarian, over 100 µM; in the assay with HCT-15 colon, over 100 µM; in the assay on SNB-75 CNS, over 100 µM. Further, the TGI in the assay with RXF 393 renal, in the assay with NCI-H460 lung, in the assay on OVCAR-4 ovarian and in the assay with SK-MEL-2 melanoma was over 100 µM throughout.
For `C[C@@H](C[C@H]1OC(C)(C)O[C@@H]1C(C)(C)O)[C@H]1CC=C2[C@]3(C)[C@H](O)C[C@H]4C(C)(C)[C@H](O)CC[C@]4(C)[C@H]3CC[C@]21C`, the TGI in the assay on MDA-MB-435 amounted to 17.7 µM; with HT29 colon it was 8.23 µM; in the assay with MALME-3M melanoma it was 26.3 µM; with COLO 205 colon, 10.5 µM; with SNB-19 CNS, 20.7 µM; with TK-10 renal, 17.8 µM. The TGI with NCI-H226 lung is 20.6 µM; with K-562 leukemia it was 13.9 µM; in the assay on MCF7 breast, 12.8 µM; in the assay with SK-OV-3 ovarian, 20.6 µM; in the assay on HCT-15 colon, 14.9 µM; in the assay with SNB-75 CNS, 19.8 µM. Also, the TGI in the assay with RXF 393 renal stood at 12.1 µM; in the assay on NCI-H460 lung, 14.2 µM; in the assay on OVCAR-4 ovarian it was 26.2 µM; in the assay on SK-MEL-2 melanoma it was 24.7 µM.
`Nc1ccccc1C#CC(=O)c1cccc(C(F)(F)F)c1`: the TGI in the assay with MDA-MB-435 is 6.65 µM; in the assay on HT29 colon it was 19.2 µM; with MALME-3M melanoma, 22.1 µM; in the assay on COLO 205 colon, 3.87 µM; in the assay with SNB-19 CNS it was 27.6 µM; in the assay on TK-10 renal, 39.1 µM. In addition, the TGI with NCI-H226 lung was 18 µM; in the assay on K-562 leukemia, over 100 µM; in the assay with MCF7 breast it was 9.91 µM; with SK-OV-3 ovarian, 28.6 µM; in the assay with SNB-75 CNS, 27.4 µM; with RXF 393 renal, 5.07 µM. In addition, the TGI in the assay on NCI-H460 lung came to 47.6 µM; in the assay with OVCAR-4 ovarian, 5.51 µM; with SK-MEL-2 melanoma, 2.54 µM.
As to `CC1CN=C(Nc2cccc(F)c2)S1` (centres undefined), the TGI in the assay with MDA-MB-435, with HT29 colon, in the assay with MALME-3M melanoma, in the assay on COLO 205 colon, with SNB-19 CNS and in the assay with TK-10 renal was over 100 µM each time. Moreover, the TGI in the assay on NCI-H226 lung, with K-562 leukemia, in the assay on MCF7 breast, in the assay on SK-OV-3 ovarian, in the assay with HCT-15 colon and in the assay with SNB-75 CNS was over 100 µM in each case. For the same molecule, the TGI with RXF 393 renal, in the assay on OVCAR-4 ovarian and with SK-MEL-2 melanoma was over 100 µM in each case.

Values taken from PubChem BioAssay (NCI).
